Source: patent US12037350B2, “Compositions and methods for the prevention and/or treatment of mitochondrial disease, including Friedreich's ataxia” (Stealth BioTherapeutics Inc., priority 2020, dated 2024)

How the values were obtained:
[1] = test system: HepG2 cells; experiment: Rotenone Oxygraph Assay (high-resolution respirometry of intact HepG2 cells); format: cell-based, human; settings: Homo sapiens; intact HepG2 cells, rotenone 1 μM, compound 10 μM, increase in respiration rate
Protocol: Example 15: Rotenone Oxygraph Assay (High-Resolution Respirometry of Intact HepG2 Cells)
The Oxygraph-2k (O2k, OROBOROS INSTRUMENTS, Austria) was used for measurements of respiration of intact cells. The respirometry was performed in Dulbecco's Modified Eagle Medium (DMEM) high glucose without supplements. All experiments were performed at 37° C.
HepG2 cells (ATCC collection code HB-8065™) were cultured in 10 cm^2 culture dishes in DMEM high glucose medium supplemented with 10% fetal bovine serum (FBS) and 100 units/mL penicillin and 100 μg/mL streptomycin until approximately 90% confluence was reached. Immediately prior to performing the respirometric assay, the cells were washed with media without FBS, trypsinized and resuspended in DMEM high glucose without FBS.
The final concentration of intact cells in the O2k-chamber was 0.5-10^6/mL. After stabilization of respiration, the Complex I inhibitor, rotenone, at 1 μM final concentration was added to inhibit electron flux via Complex I. Then, compound to be tested was added at 10 μM final concentration, and the change in respiration rate of intact cells was monitored. […]

[2] = test system: frataxin deficient fibroblasts (GM03665) from Friedreich's ataxia patient; experiment: Frataxin Deficient Fibroblast Viability Assay (BSO Assay); format: cell-based; settings: for EC50: Homo sapiens, Fibroblast, FA patient fibroblasts pretreated with compound, BSO 10 mM, MTT after 48 hrs
Protocol: Example 12: Frataxin Deficient Fibroblast Viability Assay (the “BSO Assay”)
This Example was used to evaluate the various new compositions for their potential efficacy in the treatment of Friedreich's Ataxia (FA or FRDA)—substantially as described in the above cited Reference (Matthias et al.).
The stock solutions of the test articles (and control compounds) were prepared in dimethyl sulfoxide (DMSO at 10 mM), Working stock solutions (2 times concentrated) were prepared on the day of the experiment in respective cell culture medium to be used for assay (detailed medium description below). A listing of compounds used as test articles in this Example 12 are found in Table 1, below.
A patient derived frataxin deficient fibroblast cell line was obtained from Coriell Institute. More specifically, the following cell lines/DNA samples were obtained from the NIGMS Human Genetic Cell Repository at the Coriell Institute for Medical Research: GM03665. To evaluate importance of various growth conditions on cell susceptibility to BSO toxicity cells were grown on:
MEM (Sigma-Aldrich) 15% Fetal Bovine Serum (FBS) without growth factors;
MEM (Sigma-Aldrich) 15% FBS with growth factors (Catalogue number 100-18B, Recombinant Human FGF-basic (154 a.a.) and catalogue number AF-100-15, Animal-Free Recombinant Human EGF from Peprotech);
MEM199/MEM EBS (Bioconcept Ltd.) 10% FBS, insulin 10 μg/ml, L-glutamine 2 mM with growth factors (Catalogue number 100-18B, Recombinant Human FGF-basic (154 a.a.) and catalogue number AF-100-15, Animal-Free Recombinant Human EGF from Peprotech).
To conduct an experiment, fibroblast cells (from all growth conditions) were seeded (100 μL (cells 3×10^3/well) on 96-well plates in MEM199/MEM EBS medium 10% FBS, insulin 10 μg/mL, L-glutamine 2 mM with growth factors and allowed to grow on plate for 24 hrs. After 24 hrs., media was removed and then test compounds of interest were added (100 μL, 2 times concentrated stock) to 96-well plates (end DM80 concentration not exceeding 0.5%) and incubated for 24 hours. Then L-buthionine-sulfoximine (BSO, from Acros Organics, Cat. No. 235520010) was added (100 μL, 2 times concentrated stock) at end concentrations ranging from 1 to 10 mM. Both test compounds and BSO were dissolved in MEM199/MEM EBS medium 10% FBS, insulin 10 μg/mL, L-glutamine 2 mM with growth factors. Cell viability was monitored and either after 24- or 48-hours cell viability was assayed by MTT (Thiazolyl blue tetrazolium bromide) assay. For the MTT assay, media was removed and 100 μL of MTT 1 mg/mL was added, incubated for 2 hours at +37° C., then medium was removed and 100 μL of isopropanol added to dissolve sediment. Absorption was measured at 570 (OD570) and 650 (QD650) nm wavelengths. Control cells (vehicle instead of BSO and compound) and vehicle control (with BSO, but vehicle instead of test compound) were treated in the same manner as ceils with BSO and compound. All cell media contained penicillin and streptomycin 100 U/mL each.
Absorption readouts were processed as follows: ValueΔ=ValueOD570−ValueOD650 and the obtained values were used to calculate cell viability as % of control cell (i.e., no BSO, no compound, just vehicle) viability.
Except as otherwise indicated in Table 1, all samples were run in at least 3 replicates for test compounds and at least 8 replicates for controls (i.e., both control (no BSO, no compound) and vehicle control (i.e., with BSO, no compound). Exact N per data points are indicated in the figures/table legends. Results for the compounds (test articles and controls) tested are listed in Table 1, below.
This is a cell-based assay measuring cytotoxicity which results from oxidative stress subsequent to depletion of endogenous glutathione defense mechanisms. The cells were primary Friedreich Ataxia (FA) patient fibroblasts which were incubated for 48 hrs. in BSO, an inhibitor of gamma glutamyl synthetase, an enzyme required for glutathione production. […]

[3] = test system: GM03665 cells (fibroblasts from a subject with Friedreich's ataxia); experiment: RSL-3 Toxicity Assay (RSL-3 Assay); format: cell-based, human; settings: Homo sapiens, Fibroblast; GM03665 cells, RSL-3 2 μM, 24 hours, MTT
From the text: Example 14: RSL-3 Toxicity Assay (RSL-3 Assay)
This assay has been adapted from: Hinman, A., Holst, C. R., Latham, J. C., Bruegger, J. J., Ulas, G., McCusker, K. P., Amagata, A., Davis, D., Hoff, K. G., Kahn-Kirby, A. H., Kim, V., Kosaka, Y., Lee, E., Malone, S. A., Mei, J. J., Richards, S. J., Rivera, V., Miller, G., Trimmer, J. K., Shrader, W. D., “Vitamin E hydroquinone is an endogenous regulator of ferroptosis via redox control of 15-lipoxygenase”, (2018) PLoS ONE 13(8): e0201369.
In brief, GM03665 cells (Coriell Institute) were seeded in 96-well plates (Sarstedt) in DMEM cell culture media containing 10% Fetal Bovine serum and 1% Penicillin-Streptomycin (Pen-Strep) antibiotic mix at the amount of 2×10^4/mL (100 μL or 2×10^3 cells per well). Cells were left to rest overnight at 37° C. in a humidified atmosphere with 5% CO2 to allow attachment of the cells to the culture plate. Test compounds were prepared as DMSO stocks (10 mM) and were serially diluted in cell culture media to obtain 2× working solutions. Cell media was discarded and replaced by 50 μL of test compound solutions or cell media with vehicle for control wells. Within 15 minutes, 2× working solution (4 μM) of 1S,3R-RSL-3 (CAS #1219810-16-8, Sigma-Aldrich) (diluted from 5 mM DMSO stock in cell culture media) was added. Final reaction volume was 100 μL and final DMSO concentration in reaction was kept below 0.2% (v/v) and equal in all wells. Final RSL-3 concentration was 2 μM and test compound final concentrations in reaction were up to 1000 nM. After 24 hours of incubation cell viability was assessed by MTT test. MTT (Sigma-Aldrich) solution 1 mg/mL in IX PBS (pH=7.4) was prepared 1 hour before the assay and filtered through Filtropur S 0.2 filters (Sarstedt). Cell media with test compounds was discarded and 100 μL of MTT solution was added to cells. The plates were incubated for 2 hours at +37° C. Thereafter, the MTT solution was removed and 100 μL of isopropanol was added to dissolve sediment. Absorption at 570 and 650 nm was measured using Hidex Sense microplate reader.
Compounds A and B and idebenone were not examined in this assay. The data presented in Table 1 indicates omaveloxolone was not active in this assay but that vatiquinone was active.
Discussion—Both BSO and RSL-3 are frequently utilized to induce the regulated cell death pathway known as ferroptosis. Ferroptosis is thought to require the joint activity of iron catalyzed oxidative stress and lipid peroxidation and has been described in cell and animal models of multiple neurodegenerative diseases, including Friedreich's Ataxia, Huntington Disease, Parkinson Disease and Alzheimer's Disease. […] Of note, the results for Compounds C-I and K were favorable with respect to inhibition of ferroptotic cell death when either BSO or RSL3 were used as initiating stimulus, differentiating these compounds from omaveloxolone and idebenone.

SMILES	activation at 10 µM [1] [%]	EC50 [2] [µM]	EC50 [3] [µM]	protection against BSO induced cell death (in words) ([2]; BSO Assay, text statement)
COC1=C(OC)C(=O)C(CCCC(F)(F)F)=C(C)C1=O [Compound I, 2,3-dimethoxy-5-methyl-6-(4,4,4-trifluorobutyl)cyclohexa-2,5-diene-1,4-dione]	37.8	0.772	0.479	
CCCCCCCC1=C(C)C(=O)C(OC)=C(OC)C1=O [Compound H, 2-heptyl-5,6-dimethoxy-3-methylcyclohexa-2,5-diene-1,4-dione]	41.8	0.241	0.056	
CC1=C(C)C(=O)C(C/C=C(\C)CC/C=C(\C)CCC=C(F)F)=C(C)C1=O [Compound A, 2-((2E,6E)-11,11-difluoro-3,7-dimethylundeca-2,6,10-trien-1-yl)-3,5,6-trimethylcyclohexa-2,5-diene-1,4-dione]		0.0671		best of the test compounds
COC1=C(OC)C(=O)C(CCC[Si](C)(C)C)=C(C)C1=O [Compound K, 2,3-dimethoxy-5-methyl-6-(3-(trimethylsilyl)propyl)cyclohexa-2,5-diene-1,4-dione]	41.4		0.075	
COC1=C(OC)C(=O)C(CCCCCC(F)F)=C(C)C1=O [Compound F, 2-(6,6-difluorohexyl)-5,6-dimethoxy-3-methylcyclohexa-2,5-diene-1,4-dione]	44.7	0.689	0.146	
COC1=C(OC)C(=O)C(CCCCCC(F)(F)F)=C(C)C1=O [Compound E, 2,3-dimethoxy-5-methyl-6-(6,6,6-trifluorohexyl)cyclohexa-2,5-diene-1,4-dione]	49	0.359	0.135	
CCCCCCCCCCC1=C(C)C(=O)C(OC)=C(OC)C1=O [Compound D, reference compound]	30	0.159	0.07	
COC1=C(OC)C(=O)C(CCCCCCF)=C(C)C1=O [Compound G, 2-(6-fluorohexyl)-5,6-dimethoxy-3-methylcyclohexa-2,5-diene-1,4-dione]	42.7	0.555	0.205	
